Each block holds one molecule with its values, some of them ahead of it.
What was measured:
[1] = Absorption property of the compound assessed as triplet quantum yield by UV-vis spectrophotometer; format: physicochemical
[2] = Absorption property of the compound assessed as molar extinction co-effecient by UV-vis spectrophotometer; format: physicochemical
MDA-MB-231 [3] = experiment: Cell cycle arrest in human MDA-MB-231 cells assessed as accumulation of cells at G1 phase incubated for 24 hrs by RNase A/PI staining based flow cytometric analysis relative to control; format: functional
MDA-MB-231 [4] = experiment: Induction of apoptosis in human MDA-MB-231 cells assessed as late apoptotic cells at 15 nM preincubated with compound for 24 hrs followed by 540 nm light irradiation for 1 hrs by Annexin V-FITC/PI staining based flow cytometric analysis (reference value: 17.1%); format: functional; details: time 25 hrs
MDA-MB-231 [5] = experiment: Induction of apoptosis in human MDA-MB-231 cells assessed as late apoptotic cells at 15 nM incubated for 24 hrs under dark condition by Annexin V-FITC/PI staining based flow cytometric analysis relative to control; format: functional
MDA-MB-231 [6] = experiment: Induction of apoptosis in human MDA-MB-231 cells assessed as necrotic cells at 15 nM preincubated with compound for 24 hrs followed by 540 nm light irradiation for 1 hrs by Annexin V-FITC/PI staining based flow cytometric analysis (reference value: 2.7%); format: functional; details: time 25 hrs
[7] = Emission property of the compound by fluorescence spectrophotometer analysis; format: physicochemical
MDA-MB-231 [8] = experiment: Photocytotoxicity against human MDA-MB-231 cells assessed as inhibition of cell growth incubated for 24 hrs by MTT assay; format: functional, cell-based; details: MDA-MB-231, 24 h
MDA-MB-231 [9] = experiment: Induction of apoptosis in human MDA-MB-231 cells assessed as late apoptotic cells at 30 nM preincubated with compound for 24 hrs followed by 540 nm light irradiation for 1 hrs by Annexin V-FITC/PI staining based flow cytometric analysis (reference value: 17.1%); format: functional; details: time 25 hrs
MDA-MB-231 [10] = experiment: Induction of oxidative stress on human MDA-MB-231 cells assessed as increase in ROS population at 15 nM preincubated with compound for 24 hrs followed by 540 nm light irradiation for 1 hrs by CM-H2DCFDA staining based analysis (reference value: 1.6%); format: functional; details: time 25 hrs
MDA-MB-231 [11] = experiment: Cell cycle arrest in human MDA-MB-231 cells assessed as accumulation of cells at G1 phase at 30 nM preincubated with compound for 15 mins followed by light irradiation and measured after 3 to 24 hrs by RNase A/PI staining based flow cytometric analysis (reference value: 65.7%); format: functional; details: time 195-1455 min
[12] = Absorption property of the compound assessed as decay lifetime; format: physicochemical
MDA-MB-231 [13] = experiment: Cell cycle arrest in human MDA-MB-231 cells assessed as accumulation of cells at G2/M phase at 30 nM preincubated with compound for 15 mins followed by light irradiation and measured after 3 to 24 hrs by RNase A/PI staining based flow cytometric analysis (reference value: 12.9%); format: functional; details: time 195-1455 min
HCT-116 = experiment: Photocytotoxicity against human HCT-116 cells assessed as inhibition of cell growth incubated for 24 hrs by MTT assay; format: functional, cell-based; details: HCT-116, 24 h
MDA-MB-231 [14] = experiment: Cell cycle arrest in human MDA-MB-231 cells assessed as accumulation of cells at S phase incubated for 24 hrs by RNase A/PI staining based flow cytometric analysis relative to control; format: functional
MDA-MB-231 [15] = experiment: Cell cycle arrest in human MDA-MB-231 cells assessed as accumulation of cells at G2/M phase incubated for 24 hrs by RNase A/PI staining based flow cytometric analysis relative to control; format: functional
HT-29 = experiment: Photocytotoxicity against human HT-29 cells assessed as inhibition of cell growth incubated for 24 hrs by MTT assay; format: functional, cell-based; details: HT-29, 24 h
MDA-MB-231 [16] = experiment: Induction of apoptosis in human MDA-MB-231 cells assessed as early apoptotic cells at 30 nM preincubated with compound for 24 hrs followed by 540 nm light irradiation for 1 hrs by Annexin V-FITC/PI staining based flow cytometric analysis (reference value: 19.2%); format: functional; details: time 25 hrs
[17] = Absorption property of the compound by UV-vis spectrophotometer; format: physicochemical
[18] = Fluorescence property of the compound assessed as fluorescence quantum yield in EtOH; format: physicochemical
MDA-MB-231 [19] = experiment: Cell cycle arrest in human MDA-MB-231 cells assessed as accumulation of cells at G2/M phase at 15 nM preincubated with compound for 15 mins followed by light irradiation and measured after 3 to 24 hrs by RNase A/PI staining based flow cytometric analysis (reference value: 12.9%); format: functional; details: time 195-1455 min
MDA-MB-231 [20] = experiment: Induction of apoptosis in human MDA-MB-231 cells assessed as early apoptotic cells at 15 nM incubated for 24 hrs under dark condition by Annexin V-FITC/PI staining based flow cytometric analysis relative to control; format: functional
MDA-MB-231 [21] = experiment: Induction of oxidative stress on human MDA-MB-231 cells assessed as increase in ROS population incubated for 24 hrs under dark condition by CM-H2DCFDA staining based analysis relative to control; format: functional
[22] = Photosensitizing ability of the compound in MeOH assessed as singlet oxygen generation at 408 nm measured upto 120 sec by DPBF based assay; format: functional
MDA-MB-231 [23] = experiment: Cell cycle arrest in human MDA-MB-231 cells assessed as accumulation of cells at S phase at 30 nM preincubated with compound for 15 mins followed by light irradiation and measured after 3 to 24 hrs by RNase A/PI staining based flow cytometric analysis (reference value: 16.4%); format: functional; details: time 195-1455 min
MCF7 = experiment: Photocytotoxicity against human MCF7 cells assessed as inhibition of cell growth incubated for 24 hrs by MTT assay; format: functional, cell-based; details: MCF7, 24 h
MDA-MB-231 [24] = experiment: Induction of apoptosis in human MDA-MB-231 cells assessed as early apoptotic cells at 15 nM preincubated with compound for 24 hrs followed by 540 nm light irradiation for 1 hrs by Annexin V-FITC/PI staining based flow cytometric analysis (reference value: 19.2%); format: functional; details: time 25 hrs
MDA-MB-231 [25] = experiment: Induction of oxidative stress on human MDA-MB-231 cells assessed as increase in ROS population at 30 nM preincubated with compound for 24 hrs followed by 540 nm light irradiation for 1 hrs by CM-H2DCFDA staining based analysis (reference value: 1.6%); format: functional; details: time 25 hrs
[26] = Photocytotoxicity against human MCF-10A cells assessed as inhibition of cell growth incubated for 24 hrs by MTT assay; format: toxicity, cell-based
MDA-MB-231 [27] = experiment: Induction of apoptosis in human MDA-MB-231 cells assessed as necrotic cells at 15 nM incubated for 24 hrs under dark condition by Annexin V-FITC/PI staining based flow cytometric analysis relative to control; format: functional
MDA-MB-231 [28] = experiment: Cell cycle arrest in human MDA-MB-231 cells assessed as accumulation of cells at S phase at 15 nM preincubated with compound for 15 mins followed by light irradiation and measured after 3 to 24 hrs by RNase A/PI staining based flow cytometric analysis (reference value: 16.4%); format: functional; details: time 195-1455 min
MDA-MB-231 [29] = experiment: Induction of apoptosis in human MDA-MB-231 cells assessed as necrotic cells at 30 nM preincubated with compound for 24 hrs followed by 540 nm light irradiation for 1 hrs by Annexin V-FITC/PI staining based flow cytometric analysis (reference value: 2.7%); format: functional; details: time 25 hrs
[30] = Drug localization in mitochondria of human MDA-MB-231 cells incubated for 1 hrs by Mitotracker deep red/Hoechst staining based confocal microscopic analysis; format: ADME; details: mda-mb-231, 1 h
MDA-MB-231 [31] = experiment: Cell cycle arrest in human MDA-MB-231 cells assessed as accumulation of cells at G1 phase at 15 nM preincubated with compound for 15 mins followed by light irradiation and measured after 3 to 24 hrs by RNase A/PI staining based flow cytometric analysis (reference value: 65.7%); format: functional; details: time 195-1455 min

Activity [1]: 0.4
Activity [2]: 123000 M⁻¹ cm⁻¹
Activity [7]: 551 nm
Time [12]: 3.6 microsec
Activity [17]: 534 nm
Activity [18]: 0.032
Drug uptake [30]: Active
Compound: CC1=C(I)C(C)=[N+]2C1=C(c1ccc(OCc3cn(CCOCCOCCOCCNC(=O)CCCCC4SCC5NC(=O)NC54)nn3)cc1)c1c(C)c(I)c(C)n1[B-]2(F)F (stereo not given)
Activity (MDA-MB-231 [3]): 64.8%
Activity (MDA-MB-231 [4]): 30%
Activity (MDA-MB-231 [5]): 10.4%
Activity (MDA-MB-231 [6]): 7.3%
IC50 (MDA-MB-231 [8]): 0.0187 µM
Activity (MDA-MB-231 [9]): 43%
Activity (MDA-MB-231 [10]): 41.6%
Activity (MDA-MB-231 [11]): 62.2%
Activity (MDA-MB-231 [13]): 22.9%
IC50 (HCT-116): 0.0225 µM
Activity (MDA-MB-231 [14]): 17.7%
Activity (MDA-MB-231 [15]): 13.7%
IC50 (HT-29): 0.0275 µM
Activity (MDA-MB-231 [16]): 8.3%
Activity (MDA-MB-231 [19]): 21.8%
Activity (MDA-MB-231 [20]): 13%
Activity (MDA-MB-231 [21]): 14.2%
Activity [22]: 0.33
Activity (MDA-MB-231 [23]): 14.7%
IC50 (MCF7): 0.0218 µM
Activity (MDA-MB-231 [24]): 22.4%
Activity (MDA-MB-231 [25]): 62.3%
IC50 at 24 h [26]: 0.196 µM
Activity (MDA-MB-231 [27]): 3%
Activity (MDA-MB-231 [28]): 15.5%
Activity (MDA-MB-231 [29]): 21.4%
Activity (MDA-MB-231 [31]): 59%

Compound: O=C1OC2(c3cc(I)c(O)c(I)c3Oc3c2cc(I)c(O)c3I)c2c(Cl)c(Cl)c(Cl)c(Cl)c21
Activity [22]: 0.75

— ChEMBL document CHEMBL5356947, “Mitochondria-targeted biotin-conjugated BODIPYs for cancer imaging and therapy” (RSC Med Chem, 2023)
